Experimental data published in patent publication US9499535B2, “Kinase inhibitors” (ORIGENIS GMBH, priority 2011, dated 2016).

Tests used:
LRRK2 = LRRK2 (Homo sapiens, UniProt Q5S007); assay: LRRK2 assay (LanthaScreen Eu Kinase Binding Assay); details: 5 nM LRRK2, 10 nM tracer 236, RT 1 h; read-out: LRRK2 Activites: IC50
From the text: Binding of the tracer to the kinase is detected using a europium-labeled anti-tag antibody, which binds to the kinase of interest. […] Binding of an inhibitor to the kinase competes for binding with the tracer, resulting in a loss of FRET. The fluorescence intensity ratio is directly proportional to the amount of peptide phosphorylation.
The inhibitor concentration was plotted versus the emission ratio to determine the IC50 using XLFit 5.0 (IDBS, Guildford) to fit to a sigmoidal dose response curve with a variable slope.

SYK kinase = biological target: T1, SYK kinase (Homo sapiens, UniProt P43405); assay: SYK assay (OMNIA Kinase Assay, Invitrogen); type: biochemical; details: apparent Ki calculated from the IC50 using the Cheng-Prusoff equation; 1 mM ATP, 10 μM Peptide Substrate; read-out: SYK Activities: Ki
T1 construct: purchased Invitrogen, Carlsbad
Method in brief: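 Reaction velocities were measured from kinetic fluorescence reads (360/485 nm, every 30 s over 30 min) of Mg2+-chelated SOX signal. Conditions were 1 mM ATP, 10 μM Omnia Tyr 7 peptide and 0.2 mM DTT at 30° C. Sigmoidal IC50 fits were converted to apparent Ki using Cheng-Prusoff.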

Chain of LRRK2 (Q5S007 970-2527 limits assumed): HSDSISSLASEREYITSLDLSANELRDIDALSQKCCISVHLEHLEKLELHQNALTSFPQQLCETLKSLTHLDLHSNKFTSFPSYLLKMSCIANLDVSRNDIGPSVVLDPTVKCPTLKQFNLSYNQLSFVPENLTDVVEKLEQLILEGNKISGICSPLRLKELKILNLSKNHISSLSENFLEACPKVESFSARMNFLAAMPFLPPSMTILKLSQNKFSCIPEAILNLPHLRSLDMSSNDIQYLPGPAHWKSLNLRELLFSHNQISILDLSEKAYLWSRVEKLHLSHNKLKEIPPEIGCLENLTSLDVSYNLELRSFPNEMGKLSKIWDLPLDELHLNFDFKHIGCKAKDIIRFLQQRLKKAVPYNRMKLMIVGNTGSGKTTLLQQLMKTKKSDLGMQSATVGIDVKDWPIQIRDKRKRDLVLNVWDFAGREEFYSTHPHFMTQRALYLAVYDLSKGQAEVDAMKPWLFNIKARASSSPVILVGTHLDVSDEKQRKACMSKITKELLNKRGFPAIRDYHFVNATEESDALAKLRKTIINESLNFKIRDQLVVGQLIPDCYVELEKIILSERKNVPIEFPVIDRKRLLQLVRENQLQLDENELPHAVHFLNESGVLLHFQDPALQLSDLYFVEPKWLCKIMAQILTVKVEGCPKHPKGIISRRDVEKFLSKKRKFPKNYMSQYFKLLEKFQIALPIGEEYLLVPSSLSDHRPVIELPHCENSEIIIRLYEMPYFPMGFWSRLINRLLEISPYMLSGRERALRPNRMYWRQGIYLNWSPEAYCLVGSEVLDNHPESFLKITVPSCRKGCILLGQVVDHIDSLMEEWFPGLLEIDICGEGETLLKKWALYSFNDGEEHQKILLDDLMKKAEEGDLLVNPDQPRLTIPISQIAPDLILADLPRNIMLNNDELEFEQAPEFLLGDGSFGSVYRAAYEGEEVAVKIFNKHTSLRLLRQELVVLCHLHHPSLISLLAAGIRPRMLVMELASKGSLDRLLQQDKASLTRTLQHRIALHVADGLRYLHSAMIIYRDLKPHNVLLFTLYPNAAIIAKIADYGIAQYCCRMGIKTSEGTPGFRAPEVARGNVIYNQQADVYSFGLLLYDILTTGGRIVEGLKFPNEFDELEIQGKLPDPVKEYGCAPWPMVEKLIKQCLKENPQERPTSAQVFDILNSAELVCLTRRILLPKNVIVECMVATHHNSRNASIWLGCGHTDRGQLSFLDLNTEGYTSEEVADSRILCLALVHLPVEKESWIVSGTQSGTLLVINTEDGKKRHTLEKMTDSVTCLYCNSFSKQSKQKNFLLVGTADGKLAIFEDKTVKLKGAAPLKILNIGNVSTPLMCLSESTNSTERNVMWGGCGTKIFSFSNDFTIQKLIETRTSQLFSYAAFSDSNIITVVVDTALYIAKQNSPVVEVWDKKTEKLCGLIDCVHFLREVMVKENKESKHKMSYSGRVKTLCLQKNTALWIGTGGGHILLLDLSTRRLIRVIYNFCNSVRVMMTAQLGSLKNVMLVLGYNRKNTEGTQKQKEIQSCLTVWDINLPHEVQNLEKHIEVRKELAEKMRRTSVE

An IC50 (LRRK2) of 0.1 to 1 µM and a Ki (SYK kinase) of 0.01 to 0.1 µM were found for `COc1cccc2c1nc(Nc1ccc3c(c1)NCCO3)c1n[nH]cc12` [Example #168, (3,4-Dihydro-2H-benzo[1,4]oxazin-6-yl)-(6-methoxy-2H-pyrazolo[3,4-c]quinolin-4-yl)-amine] in this work.
An IC50 (LRRK2) of 0.1 to 1 µM and a Ki (SYK kinase) of 0.01 to 0.1 µM were found for `COc1ccc2nc(Nc3ccc(S(=O)(=O)N(C)C)cc3)c3n[nH]cc3c2c1` [Example #343, 4-((8-methoxy-2H-pyrazolo[3,4-c]quinolin-4-yl)amino)-N,N-dimethylbenzenesulfonamide] in this work.
An IC50 (LRRK2) of 0.1 to 1 µM and a Ki (SYK kinase) of 0.01 to 0.1 µM were found for `COc1cccc2c1nc(Nc1ccc3c(c1)NC(=O)CO3)c1n[nH]cc12` [Example #250, 6-((6-methoxy-2H-pyrazolo[3,4-c]quinolin-4-yl)amino)-2H-benzo[b][1,4]oxazin-3(4H)-one] in this work.
An IC50 (LRRK2) of 0.1 to 1 µM and a Ki (SYK kinase) of 0.1 to 1 µM were found for `COc1ccc2nc(Nc3ccc(OC(F)F)c(OC)c3)c3n[nH]cc3c2c1` [Example #328, N-(4-(difluoromethoxy)-3-methoxyphenyl)-8-methoxy-2H-pyrazolo[3,4-c]quinolin-4-amine] in this work.
An IC50 (LRRK2) of 0.01 to 0.1 µM and a Ki (SYK kinase) of 0.01 to 0.1 µM were found for `COc1ccc2nc(Nc3ccc(Cc4ccncc4)cc3)c3n[nH]cc3c2c1` [Example #161, (8-Methoxy-2H-pyrazolo[3,4-c]quinolin-4-yl)-(4-pyridin-4-ylmethyl-phenyl)-amine] in this work.
An IC50 (LRRK2) of less than 0.01 µM and a Ki (SYK kinase) of 0.01 to 0.1 µM were found for `COc1ccc2nc(Nc3ccc(C(=O)N4CCC4)cc3)c3n[nH]cc3c2c1` [Example #302, azetidin-1-yl(4-((8-methoxy-2H-pyrazolo[3,4-c]quinolin-4-yl)amino)phenyl)methanone] in this work.
An IC50 (LRRK2) of 0.01 to 0.1 µM and a Ki (SYK kinase) of 0.1 to 1 µM were found for `COc1cccc2nc(Nc3ccc4c(c3)NCCO4)c3n[nH]cc3c12` [Example #198, (3,4-Dihydro-2H-benzo[1,4]oxazin-6-yl)-(9-methoxy-2H-pyrazolo[3,4-c]quinolin-4-yl)-amine] in this work.
An IC50 (LRRK2) of 0.01 to 0.1 µM and a Ki (SYK kinase) of 0.01 to 0.1 µM were found for `COc1ccc2nc(Nc3ccc(N(C)C)cc3)c3n[nH]cc3c2c1` [Example #51, N-(8-Methoxy-2H-pyrazolo[3,4-c]quinolin-4-yl)-N′,N′-dimethyl-benzene-1,4-diamine] in this work.
An IC50 (LRRK2) of 0.1 to 1 µM and a Ki (SYK kinase) of 0.01 to 0.1 µM were found for `COc1ccc2nc(Nc3ccc4c(c3)OCC(=O)N4)c3[nH]ncc3c2c1` [Example #224, 7-(8-Methoxy-3H-pyrazolo[3,4-c]quinolin-4-ylamino)-4H-benzo[1,4]oxazin-3-one] in this work.
An IC50 (LRRK2) of 0.1 to 1 µM and a Ki (SYK kinase) of 0.01 to 0.1 µM were found for `CCOc1cc2nc(Nc3ccc4cn[nH]c4c3)c3n[nH]cc3c2cc1OCC` [Example #92, (7,8-Diethoxy-2H-pyrazolo[3,4-c]quinolin-4-yl)-(1H-indazol-6-yl)-amine] in this work.
An IC50 (LRRK2) of 0.1 to 1 µM and a Ki (SYK kinase) of 0.1 to 1 µM were found for `COc1ccc2nc(Nc3cccc(C)c3)c3n[nH]cc3c2c1` [Example #37, (8-Methoxy-2H-pyrazolo[3,4-c]quinolin-4-yl)-m-tolyl-amine] in this work.
An IC50 (LRRK2) of 0.01 to 0.1 µM and a Ki (SYK kinase) of 0.01 to 0.1 µM were found for `COc1ccc2nc(Nc3ccc(N4CCOCC4)cc3)c3n[nH]cc3c2c1` [Example #54, (8-Methoxy-2H-pyrazolo[3,4-c]quinolin-4-yl)-(4-morpholin-4-yl-phenyl)-amine] in this work.
An IC50 (LRRK2) of 0.1 to 1 µM and a Ki (SYK kinase) of 0.1 to 1 µM were found for `CCOc1ccc(Nc2nc3ccc(OC)cc3c3cn[nH]c23)cc1OCC` [Example #114, (3,4-Diethoxy-phenyl)-(8-methoxy-3H-pyrazolo[3,4-c]quinolin-4-yl)-amine] in this work.
An IC50 (LRRK2) of less than 0.01 µM and a Ki (SYK kinase) of 0.01 to 0.1 µM were found for `COc1ccc2nc(Nc3cc(-c4ccccc4)n[nH]3)c3n[nH]cc3c2c1` [Example #77, (8-Methoxy-2H-pyrazolo[3,4-c]quinolin-4-yl)-(5-phenyl-2H-pyrazol-3-yl)-amine] in this work.
An IC50 (LRRK2) of 0.1 to 1 µM and a Ki (SYK kinase) of 0.01 to 0.1 µM were found for `COc1ccc2nc(Nc3ccc4c(c3)OCO4)c3n[nH]cc3c2c1` [Example #100, Benzo[1,3]dioxol-5-yl-(8-methoxy-2H-pyrazolo[3,4-c]quinolin-4-yl)-amine] in this work.
An IC50 (LRRK2) of 0.1 to 1 µM and a Ki (SYK kinase) of 0.01 to 0.1 µM were found for `Fc1ccc2nc(Nc3ccc(N4CCOCC4)cc3)c3[nH]ncc3c2c1` [Example #325, 8-fluoro-N-(4-morpholinophenyl)-3H-pyrazolo[3,4-c]quinolin-4-amine] in this work.
